In the supplement of paper PMC13380429:

Experiments:
Conditions in all cases: 72 h
U2OS [1] = test: drug sensitivity score (DSS) for viability; higher = more toxic; extreme values may be limits of the assay
Vero E6 [2] = test: as above
Calu-3 [3] = test: as above
HepG2 [4] = test: as above
Caco-2 [5] = test: as above
U2OS [6] = test: cell viability relative to DMSO; higher = less toxic
Vero E6 [7] = test: as above
Calu-3 [8] = test: as above
HepG2 [9] = test: as above
Caco-2 [10] = test: as above
U2OS [11] = test: relative viability EC50 (midpoint between 100% and the lowest measured viability); higher = less toxic
Vero E6 [12] = test: as above
HepG2 [13] = test: as above
Caco-2 [14] = test: as above
Calu-3 [15] = test: as above

| Structure (SMILES) | drug sensitivity score (U2OS [1]) | drug sensitivity score (Vero E6 [2]) | drug sensitivity score (Calu-3 [3]) | drug sensitivity score (HepG2 [4]) | drug sensitivity score (Caco-2 [5]) | cell viability (U2OS [6]; 1 nM) | cell viability (U2OS [6]; 10 nM) | cell viability (U2OS [6]; 100 nM) | cell viability (U2OS [6]; 1000 nM) | cell viability (U2OS [6]; 10000 nM) | cell viability (Vero E6 [7]; 1 nM) | cell viability (Vero E6 [7]; 10 nM) | cell viability (Vero E6 [7]; 100 nM) | cell viability (Vero E6 [7]; 1000 nM) | cell viability (Vero E6 [7]; 10000 nM) | cell viability (Calu-3 [8]; 1 nM) | cell viability (Calu-3 [8]; 10 nM) | cell viability (Calu-3 [8]; 100 nM) | cell viability (Calu-3 [8]; 1000 nM) | cell viability (Calu-3 [8]; 10000 nM) | cell viability (HepG2 [9]; 1 nM) | cell viability (HepG2 [9]; 10 nM) | cell viability (HepG2 [9]; 100 nM) | cell viability (HepG2 [9]; 1000 nM) | cell viability (HepG2 [9]; 10000 nM) | cell viability (Caco-2 [10]; 1 nM) | cell viability (Caco-2 [10]; 10 nM) | cell viability (Caco-2 [10]; 100 nM) | cell viability (Caco-2 [10]; 1000 nM) | cell viability (Caco-2 [10]; 10000 nM) | relative viability EC50 (U2OS [11]) | relative viability EC50 (Vero E6 [12]) | relative viability EC50 (HepG2 [13]) | relative viability EC50 (Caco-2 [14]) | relative viability EC50 (Calu-3 [15]) |
| --- | --- | --- | --- | --- | --- | --- | --- | --- | --- | --- | --- | --- | --- | --- | --- | --- | --- | --- | --- | --- | --- | --- | --- | --- | --- | --- | --- | --- | --- | --- | --- | --- | --- | --- | --- |
| CC1(C)CCC(C)(C)c2cc(C#Cc3ccc(C(=O)O)cc3)ccc21 [EC-23] | 0 | 0 | 5.2 | 0 | 1.7 | 105% | 100% | 98.4% | 95.7% | 97.4% | 102% | 99.6% | 100% | 97.4% | 94.2% | 106% | 88.7% | 83.9% | 63.9% | 85.7% | 96.5% | 108% | 104% | 108% | 106% | 104% | 105% | 89.1% | 88.8% | 80.6% | > 10 µM | > 10 µM | > 10 µM | > 10 µM | – |
| CO[C@@H]1COCC[C@@H]1N[C@@H]1CC[C@@](C(=O)N2CCc3ncc(C(F)(F)F)cc3C2)(C(C)C)C1 [MK-0812] | 0 | 0 | – | 0 | 0 | 98.8% | 106% | 101% | 106% | 103% | 102% | 100% | 111% | 106% | 97.2% | – | – | – | – | – | 96.5% | 82.9% | 90.3% | 94.7% | 98.4% | 110% | 95.7% | 99% | 113% | 97.5% | > 10 µM | > 10 µM | > 10 µM | > 10 µM | – |
| O=C(Nc1nc2ccc(NC(=O)C34CC5CC(CC(C5)C3)C4)cc2s1)c1ccccc1 [NVP-231] | 4 | 4.4 | 3.8 | 6.4 | 5.2 | 100% | 93.8% | 99.3% | 91.9% | 49.6% | 101% | 96.1% | 90.3% | 93.9% | 38.4% | 100% | 96.1% | 91.8% | 93.1% | 50.3% | 83.9% | 98.2% | 91.6% | 74.1% | 35.4% | 95.6% | 89.2% | 106% | 86.3% | 43.5% | 1.93 µM | 2.34 µM | 1.24 µM | 1.58 µM | – |
| COc1cc(Nc2c(C#N)cnc3cc(OCCCN4CCN(C)CC4)c(OC)cc23)c(Cl)cc1Cl [bosutinib] | 4.7 | 8.6 | – | 7.6 | 5.2 | 95.4% | 101% | 102% | 97.1% | 22.7% | 98.7% | 100% | 99.9% | 72.5% | 15.2% | – | – | – | – | – | 105% | 101% | 101% | 81.6% | 15.9% | 95.2% | 99.1% | 107% | 87.1% | 42.6% | 2.88 µM | 1.34 µM | 1.66 µM | 1.64 µM | – |
| CCCCCCCCCCC(C)(C)C(=O)Nc1c(OC)cc(OC)cc1OC [CI-976] | 0 | – | 0 | 0 | 0 | 100% | 101% | 98.9% | 103% | 97.9% | – | – | – | – | – | 101% | 97.6% | 95.5% | 112% | 99.3% | 105% | 103% | 103% | 102% | 96.5% | 98.7% | 97.9% | 91.7% | 99.5% | 90.2% | > 10 µM | – | > 10 µM | > 10 µM | > 10 µM |
| NC(=O)Nc1sc(-c2ccc(F)cc2)cc1C(N)=O [TPCA-1] | 3.8 | 2.7 | 1.4 | 4.7 | 7.2 | 100% | 104% | 95.9% | 94.6% | 45.3% | 104% | 98.3% | 101% | 98.2% | 52% | 98.1% | 104% | 97.7% | 96.4% | 75.9% | 99.5% | 95.8% | 94.2% | 80.6% | 49.8% | 95.6% | 99.4% | 94.2% | 76.6% | 25.8% | 2.35 µM | – | 1.3 µM | 1.44 µM | > 10 µM |
